These results are taken from PMC11785709, “Angelica gigas Nakai (Korean Dang-gui) Root Alcoholic Extracts in Health Promotion and Disease Therapy – active Phytochemicals and In Vivo Molecular Targets” (Pharmaceutical Research, 2025).

Data set [1] has as its system methicillin-resistant Staphylococcus aureus (MRSA) sepsis. More on the design: method as in PMID 34681611. To be noted: ip every other day 0.4, 2 and 10 mg/kg pre-treatment; cited from earlier work.
Another data set relates to HepG2 cells. More on the design: method as in earlier work. To be noted: free fatty acid mixture (oleate:palmitate = 2:1); cited from earlier work.
The next data set has as its system GDH. More on the design: method as in PMID 36455296. To be noted: read-out: GDH inhibition IC50; cited from earlier work.
For data set [2], the system named is adipose stem cells (ASCs). Further details: method as in PMID 31861646. To be noted: cited from earlier work.
The target of a further data set is CDK9 (Homo sapiens, UniProt P50750). Description: KINOMEscan competition binding. More on the design: purchased Eurofins DiscoverX (KINOMEscan). The protocol: (§1) Two distinct platforms were used for initial screening with 50 µM DOH vs. DMSO vehicle. The first was the Eurofins DiscoverX KINOMEscan® (Freemont, CA USA) profiling platform, which employed a proprietary active site-directed competition binding assay to quantitatively measure interactions between a test compound (i.e., DOH) and 468 human protein kinases and disease relevant mutant variants either directly (sterically) or indirectly (allosterically) to prevent a kinase binding to its immobilized substrate (ligand). The top 8 hits were subjected to secondary screening verification by DOH concentration-titration for dissociation constant (Kd). For ROCK1 and ROCK2, DA was chosen for Kd titration as well, because it is ~ 10 × higher than D in peripheral circulation due to its resistance to hydrolysis by carboxyesterase-2 (Fig. 1C).
Chain of CDK9 (P50750 whole entry): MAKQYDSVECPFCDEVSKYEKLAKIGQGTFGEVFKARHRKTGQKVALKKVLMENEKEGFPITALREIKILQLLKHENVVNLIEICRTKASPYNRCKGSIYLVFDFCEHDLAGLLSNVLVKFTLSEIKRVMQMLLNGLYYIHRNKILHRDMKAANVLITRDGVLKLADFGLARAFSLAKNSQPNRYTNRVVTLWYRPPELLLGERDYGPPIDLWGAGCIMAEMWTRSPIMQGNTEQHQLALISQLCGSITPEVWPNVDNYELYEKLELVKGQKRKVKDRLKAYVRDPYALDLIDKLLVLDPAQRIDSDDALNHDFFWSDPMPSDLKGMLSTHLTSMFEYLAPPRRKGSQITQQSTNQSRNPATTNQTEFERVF

Another data set deals with AChE. Further details: method as in PMID 11374978. To be noted: read-out: AChE inhibition IC50; cited from earlier work.
Data set [3] has as its system acute thermal pain models and CINP. Further details: method as in PMID 36249788. To be noted: cited from earlier work.
The target in a further data set is T1, FGR (Homo sapiens, UniProt P09769).
T1 construct: purchased Reaction Biology
T1 sequence (P09769 whole entry): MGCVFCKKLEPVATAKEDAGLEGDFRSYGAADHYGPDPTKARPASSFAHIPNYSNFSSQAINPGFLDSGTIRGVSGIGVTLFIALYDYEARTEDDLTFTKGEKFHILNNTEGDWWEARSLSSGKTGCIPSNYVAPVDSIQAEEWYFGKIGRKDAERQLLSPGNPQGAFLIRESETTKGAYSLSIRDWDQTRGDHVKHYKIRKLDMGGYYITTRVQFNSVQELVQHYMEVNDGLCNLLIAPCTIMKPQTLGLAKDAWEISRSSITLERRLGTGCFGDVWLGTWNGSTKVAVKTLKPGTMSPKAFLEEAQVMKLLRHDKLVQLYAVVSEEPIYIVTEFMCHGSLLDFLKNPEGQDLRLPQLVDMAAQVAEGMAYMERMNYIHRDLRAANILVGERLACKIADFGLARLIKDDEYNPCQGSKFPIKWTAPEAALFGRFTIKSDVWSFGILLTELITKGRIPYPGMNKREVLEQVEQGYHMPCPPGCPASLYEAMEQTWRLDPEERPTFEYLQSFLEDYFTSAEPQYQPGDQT
Description: Reaction Biology kinase activity inhibition. To be noted: initial screening. The class given is biochemical. The text has this:
(§2) The second screening was the Reaction Biology® (Malvern, PA) kinase activity inhibition tests, which screened for more than 600 protein kinases and lipid kinases, using miniaturized radioisotope-based assay platform with γ-^33P-ATP, followed by confirmation with IC50 kinase profiling service with 5 concentrations of test compound (i.e., DOH and DA) with curve fitting.

The target of a further data set is T2, ARK5/NUAK1 (Homo sapiens, UniProt O60285).
T2 construct: purchased Reaction Biology
T2 sequence (O60285 1-661): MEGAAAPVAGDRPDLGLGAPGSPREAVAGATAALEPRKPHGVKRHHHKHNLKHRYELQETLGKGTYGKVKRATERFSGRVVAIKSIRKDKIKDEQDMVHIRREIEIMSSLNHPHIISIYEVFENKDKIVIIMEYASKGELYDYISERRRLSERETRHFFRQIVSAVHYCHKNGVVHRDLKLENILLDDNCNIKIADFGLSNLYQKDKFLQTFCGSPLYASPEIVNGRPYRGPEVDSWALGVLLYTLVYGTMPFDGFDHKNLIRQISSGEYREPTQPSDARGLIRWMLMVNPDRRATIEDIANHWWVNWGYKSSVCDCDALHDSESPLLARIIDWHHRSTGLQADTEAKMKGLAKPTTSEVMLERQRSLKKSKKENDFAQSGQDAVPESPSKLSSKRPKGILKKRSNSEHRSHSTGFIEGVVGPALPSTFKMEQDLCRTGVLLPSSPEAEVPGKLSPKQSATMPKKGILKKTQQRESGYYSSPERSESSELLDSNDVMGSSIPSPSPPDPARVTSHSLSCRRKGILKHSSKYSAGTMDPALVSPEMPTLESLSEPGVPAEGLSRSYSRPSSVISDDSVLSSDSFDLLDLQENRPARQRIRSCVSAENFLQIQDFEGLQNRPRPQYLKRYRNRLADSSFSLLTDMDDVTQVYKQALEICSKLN
Description: Reaction Biology kinase activity inhibition. The class given is biochemical. To be noted: initial screening.
Description: as §2

The target in a further data set is T3, MKK7 (MAPK9) (Homo sapiens, UniProt O14733).
T3 construct: purchased Reaction Biology
T3 sequence (O14733 2-419 limits assumed): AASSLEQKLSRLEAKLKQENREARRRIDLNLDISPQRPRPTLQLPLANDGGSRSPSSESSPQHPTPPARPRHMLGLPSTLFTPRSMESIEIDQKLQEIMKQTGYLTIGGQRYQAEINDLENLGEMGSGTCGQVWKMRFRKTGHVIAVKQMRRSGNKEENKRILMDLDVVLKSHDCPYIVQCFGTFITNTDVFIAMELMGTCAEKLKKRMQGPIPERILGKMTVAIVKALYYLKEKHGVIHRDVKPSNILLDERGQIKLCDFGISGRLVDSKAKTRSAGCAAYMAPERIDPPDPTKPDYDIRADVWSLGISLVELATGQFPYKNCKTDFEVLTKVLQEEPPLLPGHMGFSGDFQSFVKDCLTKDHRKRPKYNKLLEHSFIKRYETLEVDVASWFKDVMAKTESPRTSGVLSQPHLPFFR
Description: Reaction Biology kinase activity inhibition. Format: biochemical. To be noted: initial screening.
Description: as §2

For the next data set, the target named is T4, TYK2 (Homo sapiens, UniProt P29597).
T4 construct: purchased Reaction Biology
T4 sequence (P29597 whole entry): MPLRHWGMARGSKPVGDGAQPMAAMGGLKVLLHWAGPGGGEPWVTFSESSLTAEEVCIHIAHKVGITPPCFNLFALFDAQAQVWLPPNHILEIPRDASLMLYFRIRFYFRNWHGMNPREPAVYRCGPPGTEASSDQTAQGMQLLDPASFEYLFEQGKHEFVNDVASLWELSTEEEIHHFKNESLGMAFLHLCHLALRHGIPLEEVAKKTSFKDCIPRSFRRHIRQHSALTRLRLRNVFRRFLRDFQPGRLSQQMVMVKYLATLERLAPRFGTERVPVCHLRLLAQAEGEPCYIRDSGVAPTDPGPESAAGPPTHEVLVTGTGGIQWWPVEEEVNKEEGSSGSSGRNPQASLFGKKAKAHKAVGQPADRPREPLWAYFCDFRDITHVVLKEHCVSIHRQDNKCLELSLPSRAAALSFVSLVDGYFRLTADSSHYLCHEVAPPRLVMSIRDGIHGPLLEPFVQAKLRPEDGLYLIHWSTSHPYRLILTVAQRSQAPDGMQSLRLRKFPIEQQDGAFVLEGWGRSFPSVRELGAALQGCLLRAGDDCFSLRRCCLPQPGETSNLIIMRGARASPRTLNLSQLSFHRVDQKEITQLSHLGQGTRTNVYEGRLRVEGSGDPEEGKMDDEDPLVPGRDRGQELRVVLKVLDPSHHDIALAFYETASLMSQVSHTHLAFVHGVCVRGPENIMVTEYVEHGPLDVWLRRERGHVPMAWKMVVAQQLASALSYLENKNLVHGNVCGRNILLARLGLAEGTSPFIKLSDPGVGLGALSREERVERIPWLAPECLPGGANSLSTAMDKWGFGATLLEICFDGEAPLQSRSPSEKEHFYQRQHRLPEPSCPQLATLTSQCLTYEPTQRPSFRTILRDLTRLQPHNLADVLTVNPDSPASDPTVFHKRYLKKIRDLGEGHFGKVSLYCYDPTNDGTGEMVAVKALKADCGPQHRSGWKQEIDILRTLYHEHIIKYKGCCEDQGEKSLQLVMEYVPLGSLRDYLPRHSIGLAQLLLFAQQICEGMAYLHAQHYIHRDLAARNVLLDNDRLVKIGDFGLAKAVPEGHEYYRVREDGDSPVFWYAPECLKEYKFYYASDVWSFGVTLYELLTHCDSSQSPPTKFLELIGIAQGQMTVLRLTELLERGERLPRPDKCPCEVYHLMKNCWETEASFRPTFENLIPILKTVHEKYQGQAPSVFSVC
Description: Reaction Biology kinase activity inhibition. The class given is biochemical. To be noted: initial screening.
Description: as §2

The next data set has as its target T5, IRAK1 (Homo sapiens, UniProt P51617).
T5 construct: purchased Reaction Biology
The experiment in a line: Reaction Biology kinase activity inhibition. Format: biochemical. To be noted: initial screening.
Description: as §2

A further data set deals with T6, RIOK1 (Homo sapiens, UniProt Q9BRS2).
T6 construct: purchased Eurofins DiscoverX (KINOMEscan)
T6 sequence (Q9BRS2 whole entry): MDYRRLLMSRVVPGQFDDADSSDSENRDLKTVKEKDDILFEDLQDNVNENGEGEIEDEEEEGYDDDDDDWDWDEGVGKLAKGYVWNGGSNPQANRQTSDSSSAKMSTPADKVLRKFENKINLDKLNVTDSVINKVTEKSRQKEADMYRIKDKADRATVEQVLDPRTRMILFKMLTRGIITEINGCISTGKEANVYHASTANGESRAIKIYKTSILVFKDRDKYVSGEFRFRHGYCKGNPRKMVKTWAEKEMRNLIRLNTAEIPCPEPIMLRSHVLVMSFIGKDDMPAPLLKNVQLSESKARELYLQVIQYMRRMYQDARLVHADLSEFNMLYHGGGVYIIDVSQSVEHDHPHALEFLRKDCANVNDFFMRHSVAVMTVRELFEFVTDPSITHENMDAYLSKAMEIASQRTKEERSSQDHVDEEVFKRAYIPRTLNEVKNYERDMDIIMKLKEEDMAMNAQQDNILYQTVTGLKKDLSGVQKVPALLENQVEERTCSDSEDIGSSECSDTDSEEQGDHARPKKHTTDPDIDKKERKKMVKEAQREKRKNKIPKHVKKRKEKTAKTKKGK
The experiment in a line: KINOMEscan competition binding. To be noted: initial screening, DOH 50 µM; read-out: Substrate bound % Control. The protocol: as §1

Data set [4] deals with T7, JAK3(JH1domain-catalytic) (Homo sapiens, UniProt P52333).
T7 construct: JAK3(JH1domain-catalytic); purchased Eurofins DiscoverX (KINOMEscan)
T7 sequence (P52333 822-1111 limits assumed): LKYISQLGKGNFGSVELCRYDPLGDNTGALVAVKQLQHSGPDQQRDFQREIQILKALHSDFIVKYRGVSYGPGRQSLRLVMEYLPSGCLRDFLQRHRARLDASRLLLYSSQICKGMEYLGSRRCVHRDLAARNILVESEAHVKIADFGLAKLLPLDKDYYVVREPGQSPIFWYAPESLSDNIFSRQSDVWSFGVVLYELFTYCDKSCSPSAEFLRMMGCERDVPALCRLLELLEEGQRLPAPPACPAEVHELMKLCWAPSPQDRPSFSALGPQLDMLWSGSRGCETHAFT
The experiment in a line: KINOMEscan competition binding. To be noted: initial screening, DOH 50 µM; read-out: Substrate bound % Control. The protocol:
as §1

The target of the next data set is T8, CDC2L1 (CDK11B) (Homo sapiens, UniProt P21127).
T8 construct: purchased Eurofins DiscoverX (KINOMEscan)
T8 sequence (P21127 whole entry): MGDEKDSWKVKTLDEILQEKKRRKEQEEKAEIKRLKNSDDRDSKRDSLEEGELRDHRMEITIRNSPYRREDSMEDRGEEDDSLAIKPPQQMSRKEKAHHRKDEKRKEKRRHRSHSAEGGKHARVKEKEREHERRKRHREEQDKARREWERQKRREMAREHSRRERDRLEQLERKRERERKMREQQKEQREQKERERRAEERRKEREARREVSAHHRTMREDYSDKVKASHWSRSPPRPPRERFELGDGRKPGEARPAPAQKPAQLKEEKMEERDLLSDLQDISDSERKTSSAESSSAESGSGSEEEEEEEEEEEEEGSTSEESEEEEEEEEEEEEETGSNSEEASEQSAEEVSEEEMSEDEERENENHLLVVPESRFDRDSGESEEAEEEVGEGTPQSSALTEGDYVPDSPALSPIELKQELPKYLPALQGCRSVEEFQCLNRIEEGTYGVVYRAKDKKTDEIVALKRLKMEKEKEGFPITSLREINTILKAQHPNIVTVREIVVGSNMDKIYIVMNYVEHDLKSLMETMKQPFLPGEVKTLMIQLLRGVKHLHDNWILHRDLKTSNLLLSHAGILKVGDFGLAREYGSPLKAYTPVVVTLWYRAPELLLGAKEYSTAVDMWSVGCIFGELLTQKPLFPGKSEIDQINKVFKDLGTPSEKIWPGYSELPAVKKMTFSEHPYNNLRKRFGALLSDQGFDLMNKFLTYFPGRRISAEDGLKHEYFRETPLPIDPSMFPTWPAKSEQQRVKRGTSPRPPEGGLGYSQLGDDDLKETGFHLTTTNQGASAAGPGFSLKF
Description: KINOMEscan competition binding. The protocol:
as §1

The target in a further data set is T9, DYRK1B (Homo sapiens, UniProt Q9Y463).
T9 construct: purchased Eurofins DiscoverX (KINOMEscan)
Description: KINOMEscan competition binding. To be noted: initial screening, DOH 50 µM; read-out: Substrate bound % Control. The protocol: as §1

The mark [5] stands for this setting: read-out: Substrate bound % Control.
Setting [6] is: validation Kd titration, 0.003 to 50 µM.
Setting [7] is: DOH (50 µM), Data 1 and Data 2, read-out: % Enzyme Activity (relative to DMSO controls).

Several values for one entry are separate records, joined by “and”; a condition that tells them apart may be missing. Identical values can stand only once. Some results are limits rather than exact numbers.

T5 sequence (P51617 whole entry): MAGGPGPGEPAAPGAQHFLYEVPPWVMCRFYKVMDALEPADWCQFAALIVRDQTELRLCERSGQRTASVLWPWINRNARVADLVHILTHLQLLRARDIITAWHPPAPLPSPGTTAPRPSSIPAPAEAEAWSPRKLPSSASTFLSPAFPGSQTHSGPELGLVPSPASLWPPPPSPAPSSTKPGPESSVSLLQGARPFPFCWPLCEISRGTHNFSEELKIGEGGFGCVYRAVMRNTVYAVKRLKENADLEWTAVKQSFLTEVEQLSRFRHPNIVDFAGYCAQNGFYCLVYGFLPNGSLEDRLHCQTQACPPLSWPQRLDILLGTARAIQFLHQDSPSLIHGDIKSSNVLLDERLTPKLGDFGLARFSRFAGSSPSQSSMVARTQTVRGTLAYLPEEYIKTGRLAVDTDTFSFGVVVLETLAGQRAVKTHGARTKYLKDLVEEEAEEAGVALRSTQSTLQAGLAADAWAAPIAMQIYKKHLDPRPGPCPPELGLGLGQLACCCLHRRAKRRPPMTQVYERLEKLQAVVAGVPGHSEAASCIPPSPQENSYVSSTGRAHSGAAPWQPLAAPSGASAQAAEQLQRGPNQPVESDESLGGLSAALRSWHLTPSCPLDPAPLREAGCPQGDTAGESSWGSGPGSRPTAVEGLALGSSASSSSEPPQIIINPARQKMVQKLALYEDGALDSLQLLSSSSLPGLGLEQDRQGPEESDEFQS

As usually defined, the IC50 is the concentration at which inhibition is half-maximal. For the compound `C/C=C(/C)C(=O)O[C@H]1Cc2cc3ccc(=O)oc3cc2OC1(C)C` [DA, decursinol angelate], in [1], the “mouse mortality and bacteremia” value is “dose-dependent decrease of mouse mortality”. Further, the lipid accumulation entry in the data set on HepG2 cells was “suppressed lipid accumulation”. In addition, the IC50 in the data set with GDH was ~1.4 µM and 1.4 µM. The adipocyte differentiation entry in data set [2] is given as “significantly inhibited adipocyte differentiation”.

As usually defined, the Kd is a measure of binding affinity in units of concentration. High values mean lower affinity, low ones higher affinity. In general, inhibition refers to how much of the control response was suppressed. The low end stands for a weak effect, the high end for a strong effect. For `CC1(C)Oc2cc3oc(=O)ccc3cc2C[C@@H]1O` [DOH, decursinol], the kinase bound, % of control at 50 µM on CDK9 (setting [5]) was determined as 12%. The Kd on CDK9 (setting [6]) and on CDC2L1 (CDK11B) (setting [6]) was greater than 50 µM in each case. Also, the IC50 in the data set on AChE is 28 µM. Besides, the “hypothermia and sedation (ataxia)” value in [3] is on record as “dose dependent hypothermia”. Besides, in [3] (ip DOH 50 mg/kg), the “antinociception in hot plate and tail-flick assays” value is “replicated antinociception effects”. Further, in data set [3] (ip DOH 50 mg/kg), the “mechanical allodynia of mice with cisplatin-neuropathy (Von Fry test)” value is listed as “reversed the mechanical allodynia”. In data set [3] (once-daily ip, hot plate, tail-flick and CINP mice), the “time to tolerance development” value is listed as ~ 10 days. In addition, the inhibition at 50 µM against FGR (DOH 50 µM) worked out at 34.8%; at ARK5/NUAK1 (DOH 50 µM) it was 27.4%; on MKK7 (MAPK9) (DOH 50 µM), 36.5%; on TYK2 (DOH 50 µM), 32.4%; against IRAK1 (DOH 50 µM), 38.5%. Further, the “% Enzyme Activity (relative to DMSO controls)” value on FGR (DOH (50 µM), Data 1 and Data 2) is recorded as 64.8%; at ARK5/NUAK1 (DOH (50 µM), Data 1 and Data 2) it was 72.5%; at MKK7 (MAPK9) (DOH (50 µM), Data 1 and Data 2) it was 61.2%; at TYK2 (DOH (50 µM), Data 1 and Data 2), 62.8%; on IRAK1 (DOH (50 µM), Data 1 and Data 2), 58.4%. For the same compound, the remaining activity at 50 µM on FGR (setting [7]) worked out at 65.6%; on ARK5/NUAK1 (setting [7]), 72.6%; on MKK7 (MAPK9) (setting [7]), 65.9%; on TYK2 (setting [7]), 72.3%; at IRAK1 (setting [7]), 64.5%. The remaining binding at 50 µM at RIOK1 was found to be 50%; in [4], 45%; at CDC2L1 (CDK11B) (setting [5]), 19%; on DYRK1B, 28%.
